Assay results as given in US10738028B2, “Spiro three-membered ring, spiro five-membered ring peptide deformylase inhibitor and use thereof in antibacteria and anti-tumor” (priority 2016, dated 2020).
≈ marks a conversion by molar mass, not a printed value.

Legend:
Format in all cases: cell-based
[1] = test system: Enterococcus faecalis (EFA); assay: MIC, two-fold agar dilution (CLSI), clinical isolates
From the text: (§1) 1. The invention adopts the two-fold agar dilution method recommended by the operating procedure of antimicrobial susceptibility testing set by American Clinical and Laboratory Standards Institute (CLSI) to determine the Minimum Inhibitory Concentration (MIC) of the test samples against the tested strains.

[2] = test system: Enterococcus faecium (EFM); assay: as above
From the text: as §1

[3] = test system: Escherichia coli (including ESBLs, non-ESBLs); assay: as above
From the text: as §1

[4] = test system: Moraxella catarrhalis (BCA); assay: as above; settings: for Anti-bacterial activity (MIC), strain BCA 14-10: clinical isolate BCA 14-10
From the text: as §1

[5] = test system: Streptococcus pneoumoniae (SPN); assay: as above
From the text: as §1

[6] = test system: methicillin-resistant Staphylococcus aureus (MRSA); assay: as above
From the text: as §1

[7] = test system: methicillin-resistant Staphylococcus epidermidis (MRSE); assay: as above
From the text: as §1

[8] = test system: methicillin-sensitive Staphylococcus aureus (MSSA); assay: as above
From the text: as §1

[9] = test system: methicillin-sensitive Staphylococcus epidermidis (MSSE); assay: as above
From the text: as §1

[10] = test system: HCT-116 colorectal cancer cell line; assay: CCK-8 proliferation inhibition; settings: Homo sapiens, HCT-116, 72 h, concentration of 30 μM; 72 hours; CCK-8; read-out: HCT116 inhibition rate/%
Outline: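 Cells were plated overnight at 2000 cells/well, then compound in culture medium was added at a range of final concentrations. After 72 hours in a CO2 incubator, medium was replaced with 1:10 CCK-8 solution for the read-out.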

O=CN(O)C[C@@H](CC1CCCC1)C(=O)N1CC2(CC2)C[C@H]1C(=O)Nc1ccno1 [Example 37, (S)-5-((R)-3-cyclopentyl-2-((N-hydroxyformamido)methyl)propionyl)-N-(isoxazol-5-yl)-5-azaspiro[2.4]heptane-6-carboxamide]
MIC (anti-bacterial activity) ([1]; strain EFA 15-1): 4 µg/mL (≈ 9.89 µM) | MIC (anti-bacterial activity) ([1]; strain EFA 15-2): 4 µg/mL (≈ 9.89 µM) | MIC (anti-bacterial activity) ([1]; strain EFA 15-3): 4 µg/mL (≈ 9.89 µM) | MIC (anti-bacterial activity) ([1]; strain EFA 15-4): 4 µg/mL (≈ 9.89 µM) | MIC (anti-bacterial activity) ([1]; strain EFA 15-5): 4 µg/mL (≈ 9.89 µM) | MIC (anti-bacterial activity) ([1]; strain EFA 15-6): 4 µg/mL (≈ 9.89 µM) | MIC (anti-bacterial activity) ([1]; strain EFA 15-9): 4 µg/mL (≈ 9.89 µM) | MIC (anti-bacterial activity) ([2]; strain EFM 15-1): 2 µg/mL (≈ 4.94 µM) | MIC (anti-bacterial activity) ([2]; strain EFM 15-2): 2 µg/mL (≈ 4.94 µM) | MIC (anti-bacterial activity) ([2]; strain EFM 15-3): 2 µg/mL (≈ 4.94 µM) | MIC (anti-bacterial activity) ([2]; strain EFM 15-4): 2 µg/mL (≈ 4.94 µM) | MIC (anti-bacterial activity) ([2]; strain EFM 15-5): 1 µg/mL (≈ 2.47 µM) | MIC (anti-bacterial activity) ([2]; strain EFM 15-6): 2 µg/mL (≈ 4.94 µM) | MIC (anti-bacterial activity) ([3]; strain ECO+ 15-1): 32 µg/mL (≈ 79.1 µM) | MIC (anti-bacterial activity) ([3]; strain ECO+ 15-2): 32 µg/mL (≈ 79.1 µM) | MIC (anti-bacterial activity) ([3]; strain ECO+ 15-3): 32 µg/mL (≈ 79.1 µM) | MIC (anti-bacterial activity) ([3]; strain ECO+ 15-4): 32 µg/mL (≈ 79.1 µM) | MIC (anti-bacterial activity) ([3]; strain ECO− 15-1): 32 µg/mL (≈ 79.1 µM) | MIC (anti-bacterial activity) ([3]; strain ECO− 15-2): 32 µg/mL (≈ 79.1 µM) | MIC (anti-bacterial activity) ([3]; strain ECO− 15-3): 32 µg/mL (≈ 79.1 µM) | MIC (anti-bacterial activity) ([3]; strain ECO− 15-4): 32 µg/mL (≈ 79.1 µM) | Anti-bacterial activity (MIC), strain BCA 14-10 [4]: 3 µg/mL | MIC (anti-bacterial activity) ([4]; strain BCA 14-1): 2 µg/mL (≈ 4.94 µM) | MIC (anti-bacterial activity) ([4]; strain BCA 14-4): 2 µg/mL (≈ 4.94 µM) | MIC (anti-bacterial activity) ([4]; strain BCA 14-5): 2 µg/mL (≈ 4.94 µM) | MIC (anti-bacterial activity) ([4]; strain BCA 14-6): 2 µg/mL (≈ 4.94 µM) | MIC (anti-bacterial activity) ([4]; strain BCA 14-7): 3 µg/mL (≈ 7.42 µM) | MIC (anti-bacterial activity) ([4]; strain BCA 14-8): 2 µg/mL (≈ 4.94 µM) | MIC (anti-bacterial activity) ([5]; strain SPN 16-2): 0.5 µg/mL (≈ 1.24 µM) | MIC (anti-bacterial activity) ([5]; strain SPN 16-4): 4 µg/mL (≈ 9.89 µM) | MIC (anti-bacterial activity) ([6]; strain MRSA 15-1): 0.5 µg/mL (≈ 1.24 µM) | MIC (anti-bacterial activity) ([6]; strain MRSA 15-2): 1 µg/mL (≈ 2.47 µM) | MIC (anti-bacterial activity) ([6]; strain MRSA 15-3): 0.5 µg/mL (≈ 1.24 µM) | MIC (anti-bacterial activity) ([6]; strain MRSA 15-4): 0.2 µg/mL (≈ 0.494 µM) | MIC (anti-bacterial activity) ([7]; strain MRSE 15-1): 0.5 µg/mL (≈ 1.24 µM) | MIC (anti-bacterial activity) ([7]; strain MRSE 15-2): 1 µg/mL (≈ 2.47 µM) | MIC (anti-bacterial activity) ([7]; strain MRSE 15-3): 1 µg/mL (≈ 2.47 µM) | MIC (anti-bacterial activity) ([7]; strain MRSE 15-7): 1 µg/mL (≈ 2.47 µM) | MIC (anti-bacterial activity) ([8]; strain MSSA 15-3): 1 µg/mL (≈ 2.47 µM) | MIC (anti-bacterial activity) ([8]; strain MSSA 15-4): 1 µg/mL (≈ 2.47 µM) | MIC (anti-bacterial activity) ([8]; strain MSSA 15-5): 0.5 µg/mL (≈ 1.24 µM) | MIC (anti-bacterial activity) ([8]; strain MSSA 15-6): 1 µg/mL (≈ 2.47 µM) | MIC (anti-bacterial activity) ([9]; strain MSSE 15-3): 1 µg/mL (≈ 2.47 µM) | MIC (anti-bacterial activity) ([9]; strain MSSE 15-4): 1 µg/mL (≈ 2.47 µM) | MIC (anti-bacterial activity) ([9]; strain MSSE 15-5): 1 µg/mL (≈ 2.47 µM) | MIC (anti-bacterial activity) ([9]; strain MSSE 15-6): 1 µg/mL (≈ 2.47 µM) | inhibition at 30 µM [10]: 16%

Cc1cc(NC(=O)[C@@H]2CC3(CC3)CN2C(=O)[C@H](CC2CCCC2)CN(O)C=O)no1 [Example 39]
MIC (anti-bacterial activity) ([1]; strain EFA 15-1): 4 µg/mL (≈ 9.56 µM) | MIC (anti-bacterial activity) ([1]; strain EFA 15-2): 4 µg/mL (≈ 9.56 µM) | MIC (anti-bacterial activity) ([1]; strain EFA 15-3): 1 µg/mL (≈ 2.39 µM) | MIC (anti-bacterial activity) ([1]; strain EFA 15-4): 4 µg/mL (≈ 9.56 µM) | MIC (anti-bacterial activity) ([1]; strain EFA 15-5): 4 µg/mL (≈ 9.56 µM) | MIC (anti-bacterial activity) ([1]; strain EFA 15-6): 4 µg/mL (≈ 9.56 µM) | MIC (anti-bacterial activity) ([1]; strain EFA 15-9): 4 µg/mL (≈ 9.56 µM) | MIC (anti-bacterial activity) ([2]; strain EFM 15-1): 1 µg/mL (≈ 2.39 µM) | MIC (anti-bacterial activity) ([2]; strain EFM 15-2): 1 µg/mL (≈ 2.39 µM) | MIC (anti-bacterial activity) ([2]; strain EFM 15-3): 0.5 µg/mL (≈ 1.19 µM) | MIC (anti-bacterial activity) ([2]; strain EFM 15-4): 1 µg/mL (≈ 2.39 µM) | MIC (anti-bacterial activity) ([2]; strain EFM 15-5): 1 µg/mL (≈ 2.39 µM) | MIC (anti-bacterial activity) ([2]; strain EFM 15-6): 1 µg/mL (≈ 2.39 µM) | MIC (anti-bacterial activity) ([3]; strain ECO+ 15-1): 16 µg/mL (≈ 38.2 µM) | MIC (anti-bacterial activity) ([3]; strain ECO+ 15-2): 32 µg/mL (≈ 76.5 µM) | MIC (anti-bacterial activity) ([3]; strain ECO+ 15-3): 32 µg/mL (≈ 76.5 µM) | MIC (anti-bacterial activity) ([3]; strain ECO+ 15-4): 16 µg/mL (≈ 38.2 µM) | MIC (anti-bacterial activity) ([3]; strain ECO− 15-1): 32 µg/mL (≈ 76.5 µM) | MIC (anti-bacterial activity) ([3]; strain ECO− 15-2): 32 µg/mL (≈ 76.5 µM) | MIC (anti-bacterial activity) ([3]; strain ECO− 15-3): 32 µg/mL (≈ 76.5 µM) | MIC (anti-bacterial activity) ([3]; strain ECO− 15-4): 32 µg/mL (≈ 76.5 µM) | Anti-bacterial activity (MIC), strain BCA 14-10 [4]: 0.5 µg/mL | MIC (anti-bacterial activity) ([4]; strain BCA 14-1): 1 µg/mL (≈ 2.39 µM) | MIC (anti-bacterial activity) ([4]; strain BCA 14-4): 1 µg/mL (≈ 2.39 µM) | MIC (anti-bacterial activity) ([4]; strain BCA 14-5): 0.5 µg/mL (≈ 1.19 µM) | MIC (anti-bacterial activity) ([4]; strain BCA 14-6): 1 µg/mL (≈ 2.39 µM) | MIC (anti-bacterial activity) ([4]; strain BCA 14-7): 1 µg/mL (≈ 2.39 µM) | MIC (anti-bacterial activity) ([4]; strain BCA 14-8): 1 µg/mL (≈ 2.39 µM) | MIC (anti-bacterial activity) ([5]; strain SPN 16-2): 0.5 µg/mL (≈ 1.19 µM) | MIC (anti-bacterial activity) ([5]; strain SPN 16-4): 4 µg/mL (≈ 9.56 µM) | MIC (anti-bacterial activity) ([6]; strain MRSA 15-1): 1 µg/mL (≈ 2.39 µM) | MIC (anti-bacterial activity) ([6]; strain MRSA 15-2): 1 µg/mL (≈ 2.39 µM) | MIC (anti-bacterial activity) ([6]; strain MRSA 15-3): 1 µg/mL (≈ 2.39 µM) | MIC (anti-bacterial activity) ([6]; strain MRSA 15-4): 1 µg/mL (≈ 2.39 µM) | MIC (anti-bacterial activity) ([7]; strain MRSE 15-1): 1 µg/mL (≈ 2.39 µM) | MIC (anti-bacterial activity) ([7]; strain MRSE 15-2): 1 µg/mL (≈ 2.39 µM) | MIC (anti-bacterial activity) ([7]; strain MRSE 15-3): 1 µg/mL (≈ 2.39 µM) | MIC (anti-bacterial activity) ([7]; strain MRSE 15-7): 1 µg/mL (≈ 2.39 µM) | MIC (anti-bacterial activity) ([8]; strain MSSA 15-3): 1 µg/mL (≈ 2.39 µM) | MIC (anti-bacterial activity) ([8]; strain MSSA 15-4): 1 µg/mL (≈ 2.39 µM) | MIC (anti-bacterial activity) ([8]; strain MSSA 15-5): 1 µg/mL (≈ 2.39 µM) | MIC (anti-bacterial activity) ([8]; strain MSSA 15-6): 1 µg/mL (≈ 2.39 µM) | MIC (anti-bacterial activity) ([9]; strain MSSE 15-3): 1 µg/mL (≈ 2.39 µM) | MIC (anti-bacterial activity) ([9]; strain MSSE 15-4): 1 µg/mL (≈ 2.39 µM) | MIC (anti-bacterial activity) ([9]; strain MSSE 15-5): 1 µg/mL (≈ 2.39 µM) | MIC (anti-bacterial activity) ([9]; strain MSSE 15-6): 1 µg/mL (≈ 2.39 µM) | inhibition at 30 µM [10]: -10%
